ChEMBL document CHEMBL1125269, “Design of enzyme inhibitors using iterative protein crystallographic analysis” (J Med Chem, 1991)

What was measured:
L1210 [1] = experiment: Inhibition of cellular growth against mouse (L1210) deficient in thymidine kinase.
GC3/MTK- [2] = experiment: Inhibition of cellular growth against human adenocarcinoma (GC3/M TK-) deficient in thymidine kinase.
CCRF-CEM [3] = experiment: Inhibition of cellular growth against human (CCRF-CEM) leukemias (ATCC) deficient in thymidine kinase.
GC3/MTK- [4] = experiment: Inhibition of cellular growth against human adenocarcinoma (GC3/M TK-) deficient in thymidine kinase
Thymidylate synthase [5] = molecular target: Thymidylate synthase (Escherichia coli, UniProt C3SWJ7)
Sequence of Thymidylate synthase (Escherichia coli, UniProt C3SWJ7) (C3SWJ7 whole entry): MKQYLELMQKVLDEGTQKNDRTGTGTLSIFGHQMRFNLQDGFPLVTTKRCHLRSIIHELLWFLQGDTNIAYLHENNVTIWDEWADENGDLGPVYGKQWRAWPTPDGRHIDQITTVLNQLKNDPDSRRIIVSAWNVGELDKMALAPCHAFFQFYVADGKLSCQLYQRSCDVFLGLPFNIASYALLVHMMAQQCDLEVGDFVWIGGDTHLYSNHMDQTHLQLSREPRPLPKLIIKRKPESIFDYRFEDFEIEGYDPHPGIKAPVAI
Description: Inhibition of Thymidylate synthase of Escherichia coli (Ki)

CCRF-CEM [6] = experiment: Inhibition of cellular growth against human (CCRF-CEM) leukemias (ATCC) deficient in thymidine kinase
L1210 [7] = experiment: Inhibition of cellular growth against mouse (L1210) deficient in thymidine kinase
Thymidylate synthase [8] = molecular target: Thymidylate synthase (Homo sapiens, UniProt P04818)
Sequence of Thymidylate synthase (Homo sapiens, UniProt P04818) (P04818 whole entry): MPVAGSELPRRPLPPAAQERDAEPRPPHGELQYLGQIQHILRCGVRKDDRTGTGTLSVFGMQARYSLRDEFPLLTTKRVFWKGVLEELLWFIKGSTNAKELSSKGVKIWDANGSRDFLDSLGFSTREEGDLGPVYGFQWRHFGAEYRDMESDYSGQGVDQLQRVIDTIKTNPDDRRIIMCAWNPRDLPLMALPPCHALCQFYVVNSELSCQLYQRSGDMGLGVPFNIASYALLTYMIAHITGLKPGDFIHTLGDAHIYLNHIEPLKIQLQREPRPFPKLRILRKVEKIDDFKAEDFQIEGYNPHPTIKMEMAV
Description: Inhibition of human Thymidylate synthase (Ki)

[9] = molecular target: Thymidylate synthase (Escherichia coli) (UniProt C3SWJ7)
Sequence of Thymidylate synthase (Escherichia coli) (C3SWJ7 1-264): as the sequence (C3SWJ7 whole entry) above
Description: Inhibition of Thymidylate synthase of Escherichia coli (Kii)

Compound	IC50 (L1210 [1]) [nM]	IC50 (CCRF-CEM [3]) [nM]	IC50 (GC3/MTK- [2]) [µM]	also measured
CCN(Cc1ccc(S(=O)(=O)N2CCNCC2)cc1)c1ccc2c3c(cccc13)C(=O)N2	6000			
CN(Cc1ccc(S(=O)(=O)c2ccccc2)cc1)c1ccc2c3c(cccc13)C(=O)N2				IC50 (GC3/MTK- [4]): > 5 µM
O=S(=O)(c1ccc(CN2CCCc3cc4[nH]cnc4cc32)cc1)N1CCNCC1	20000	11000	43	Ki (Thymidylate synthase [5]): 4900 nM
C#CCN(Cc1ccc2nc(C)nc(O)c2c1)c1ccccc1			> 10.7	IC50 (CCRF-CEM [6]): > 10.7 µM; IC50 (L1210 [7]): > 10.7 µM
C#CCN(Cc1ccc2nc(C)nc(O)c2c1)c1cccc(C(F)(F)F)c1				IC50 (CCRF-CEM [6]): > 4.3 µM; IC50 (L1210 [7]): > 4.3 µM; Ki (Thymidylate synthase [5]): 450 nM; IC50 (GC3/MTK- [4]): > 4.3 µM
C#CCN(Cc1ccc2[nH]c(N)nc(=O)c2c1)c1ccc(C(=O)NC(CCC(=O)O)C(=O)O)cc1 (centres undefined)	3500	750	1.4	

Further compounds by falling IC50 (L1210 [1]), results first:

IC50 (L1210 [1]) [nM]	IC50 (CCRF-CEM [3]) [nM]	Compound	IC50 (GC3/MTK- [2]) [µM]	also measured
2300	8300	CN(Cc1ccc(S(=O)(=O)N2CCNCC2)cc1)c1ccc2c3c(cccc13)C(=O)N2	25	
2050	2200	Nc1nc2cc3c(cc2[nH]1)N(Cc1ccc(S(=O)(=O)N2CCNCC2)cc1)CCC3		IC50 (GC3/MTK- [4]): > 50 µM
2000	3500	C#CCN(Cc1ccc2nc(C)nc(O)c2c1)c1ccc(S(=O)(=O)c2ccccc2)c(C(F)(F)F)c1	7.5	
2000	3900	Nc1nc2cc3c(cc2[nH]1)N(Cc1ccc(S(=O)(=O)c2ccccc2)cc1)CCC3		Ki (Thymidylate synthase [5]): 43 nM; IC50 (GC3/MTK- [4]): > 5 µM
1000	1600	C#CCN(Cc1ccc2nc(C)nc(O)c2c1)c1ccc(S(=O)(=O)c2ccccc2)cc1	1.1	
380	1600	CN(Cc1ccc(S(=O)(=O)c2ccccc2)cc1)c1ccc2c3c(cccc13)C(N)=N2	4.6	
300	1300	C#CCN(Cc1ccc2nc(C)nc(O)c2c1)c1ccc(S(=O)(=O)n2ccc3ccccc32)cc1	1.5	
59	43	C#CCN(Cc1ccc2nc(C)nc(O)c2c1)c1ccc(C(=O)NC(CCC(=O)O)C(=O)O)cc1 (centres undefined)	0.049	Ki (Thymidylate synthase [5]): 4.8 nM; Ki (Thymidylate synthase [8]): 8.5 nM; Kii [9]: 0.013 µM
